Data reported in article PMC9248008, “Mechanistic Studies of a Skatole-Forming Glycyl Radical Enzyme Suggest Reaction Initiation via Hydrogen Atom Transfer” (Journal of the American Chemical Society, 2022).

Tests used:
[1] = biological target: T1, Ou IAD (indoleacetate decarboxylase from Olsenella uli) (Olsenella uli, UniProt E1QXZ2); test: inhibition in assays with I3A; format: biochemical; conditions: partial competitive inhibitor versus I3A, not consumed
T1 construct: gene Olsu_0124; purified; glycyl radical installed by Ou IAD-AE with SAM; catalytic Gly853 and Cys500; tags and host only in supplement
T1 sequence (E1QXZ2 entry or part of it): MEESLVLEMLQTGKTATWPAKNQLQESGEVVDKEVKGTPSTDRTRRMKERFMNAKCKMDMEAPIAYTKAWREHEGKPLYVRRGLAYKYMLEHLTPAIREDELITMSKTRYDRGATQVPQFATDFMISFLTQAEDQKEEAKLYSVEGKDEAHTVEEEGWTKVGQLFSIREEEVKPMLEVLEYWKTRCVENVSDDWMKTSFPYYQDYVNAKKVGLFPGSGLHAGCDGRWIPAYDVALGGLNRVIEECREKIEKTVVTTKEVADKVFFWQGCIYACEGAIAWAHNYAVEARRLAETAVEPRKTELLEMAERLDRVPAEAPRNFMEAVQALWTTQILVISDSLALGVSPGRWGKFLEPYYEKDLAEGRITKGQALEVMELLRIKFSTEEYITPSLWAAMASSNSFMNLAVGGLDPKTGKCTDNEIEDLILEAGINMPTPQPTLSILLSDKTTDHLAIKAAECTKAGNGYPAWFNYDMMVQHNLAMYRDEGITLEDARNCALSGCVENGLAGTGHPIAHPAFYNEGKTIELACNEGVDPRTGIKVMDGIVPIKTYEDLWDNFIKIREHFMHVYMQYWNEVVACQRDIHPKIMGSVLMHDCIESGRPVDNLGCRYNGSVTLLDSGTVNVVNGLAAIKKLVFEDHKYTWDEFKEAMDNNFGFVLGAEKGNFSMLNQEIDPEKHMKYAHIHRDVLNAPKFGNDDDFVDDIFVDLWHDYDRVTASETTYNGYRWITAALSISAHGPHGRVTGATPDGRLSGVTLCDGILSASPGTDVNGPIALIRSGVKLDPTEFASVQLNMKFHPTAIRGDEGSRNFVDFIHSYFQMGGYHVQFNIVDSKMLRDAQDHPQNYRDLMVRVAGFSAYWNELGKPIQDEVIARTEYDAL

[2] = biological target: T2, Cs HPAD (hydroxyphenylacetate decarboxylase) (Clostridium scatologenes, UniProt Q38HX4); test: p-cresol formation, deuterium incorporation in D2O; format: biochemical; conditions: mere turnover
T2 construct: gene csdB; glycyl radical enzyme; residues Cys503, Glu505, Glu637; with 4-hydroxyphenylacetate decarboxylase small subunit
T2 sequence (Q38HX3 whole entry): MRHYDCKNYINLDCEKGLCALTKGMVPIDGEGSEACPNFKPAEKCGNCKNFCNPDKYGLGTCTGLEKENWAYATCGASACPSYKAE
T2 sequence (Q38HX4 whole entry): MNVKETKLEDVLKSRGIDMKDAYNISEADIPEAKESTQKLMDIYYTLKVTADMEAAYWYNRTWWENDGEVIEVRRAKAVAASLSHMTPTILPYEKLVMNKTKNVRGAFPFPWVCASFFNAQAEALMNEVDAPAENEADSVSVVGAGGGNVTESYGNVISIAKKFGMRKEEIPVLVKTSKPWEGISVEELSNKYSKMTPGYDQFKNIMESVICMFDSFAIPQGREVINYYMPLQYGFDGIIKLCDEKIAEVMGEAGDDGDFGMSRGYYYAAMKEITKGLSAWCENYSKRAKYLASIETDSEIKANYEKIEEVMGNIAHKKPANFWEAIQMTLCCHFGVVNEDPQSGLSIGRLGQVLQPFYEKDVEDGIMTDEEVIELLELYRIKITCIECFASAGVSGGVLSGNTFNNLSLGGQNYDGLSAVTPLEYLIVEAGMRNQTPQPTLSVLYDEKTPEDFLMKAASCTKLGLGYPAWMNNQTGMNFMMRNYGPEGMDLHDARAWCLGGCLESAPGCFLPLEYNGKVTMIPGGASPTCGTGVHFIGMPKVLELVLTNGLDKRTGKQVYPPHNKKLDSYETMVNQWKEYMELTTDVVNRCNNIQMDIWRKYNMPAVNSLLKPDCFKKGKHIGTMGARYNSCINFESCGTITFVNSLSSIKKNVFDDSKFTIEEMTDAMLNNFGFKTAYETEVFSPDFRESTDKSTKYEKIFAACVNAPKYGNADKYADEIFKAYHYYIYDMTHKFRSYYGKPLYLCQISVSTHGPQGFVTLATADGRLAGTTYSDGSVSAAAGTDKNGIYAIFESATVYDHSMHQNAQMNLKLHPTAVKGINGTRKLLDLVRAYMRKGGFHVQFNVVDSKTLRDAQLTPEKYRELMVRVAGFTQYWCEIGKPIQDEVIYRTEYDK

CC(C)(C(=O)O)c1c[nH]c2ccccc12 [α,α-Me2-I3A]
inhibition in assays with I3A [1]: Both compounds are partial competitive inhibitors in assays with I3A

O=C(O)Cc1ccc(O)cc1 [HPA, p-hydroxyphenylacetate]
p-cresol formation, deuterium incorporation in D2O [2]: When HPA and Cs HPAD were incubated with D2O, only the expected D1-p-cresol

CC(C(=O)O)c1c[nH]c2ccccc12 (racemic) [α-Me-I3A]
inhibition in assays with I3A ([1]; racemic): Both compounds are partial competitive inhibitors in assays with I3A
